The test has as its target T1, AR (androgen receptor) protein in VCaP cells (Homo sapiens, UniProt P10275).
T1 construct: endogenous in cells; host or cells: VCaP cells
T1 sequence (P10275 1-920): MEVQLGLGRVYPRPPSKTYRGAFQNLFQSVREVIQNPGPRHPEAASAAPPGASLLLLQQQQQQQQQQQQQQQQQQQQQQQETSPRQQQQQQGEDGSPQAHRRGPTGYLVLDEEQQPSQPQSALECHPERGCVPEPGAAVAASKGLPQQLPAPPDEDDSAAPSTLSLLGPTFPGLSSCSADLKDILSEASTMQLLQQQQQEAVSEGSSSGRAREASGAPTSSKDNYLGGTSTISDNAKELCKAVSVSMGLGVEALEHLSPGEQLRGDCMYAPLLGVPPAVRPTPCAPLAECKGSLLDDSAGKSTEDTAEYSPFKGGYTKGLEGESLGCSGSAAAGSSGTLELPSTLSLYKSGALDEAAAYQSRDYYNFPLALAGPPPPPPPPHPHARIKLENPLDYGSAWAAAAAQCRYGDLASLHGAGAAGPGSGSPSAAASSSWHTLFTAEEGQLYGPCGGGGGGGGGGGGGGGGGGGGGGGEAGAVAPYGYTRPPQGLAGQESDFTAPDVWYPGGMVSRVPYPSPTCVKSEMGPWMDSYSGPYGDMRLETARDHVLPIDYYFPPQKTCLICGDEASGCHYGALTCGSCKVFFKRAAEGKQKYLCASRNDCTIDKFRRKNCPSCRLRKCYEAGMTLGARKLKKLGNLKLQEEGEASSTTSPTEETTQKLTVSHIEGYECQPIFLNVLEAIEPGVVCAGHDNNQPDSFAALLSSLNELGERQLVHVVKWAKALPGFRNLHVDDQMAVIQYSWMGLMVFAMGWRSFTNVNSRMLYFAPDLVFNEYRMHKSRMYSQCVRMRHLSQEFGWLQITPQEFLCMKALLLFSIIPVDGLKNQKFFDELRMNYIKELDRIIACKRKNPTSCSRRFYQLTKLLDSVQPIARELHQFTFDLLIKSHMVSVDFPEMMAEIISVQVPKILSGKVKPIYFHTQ
Description: VCAP AR Degradation Assay. The format is cell-based. As to conditions: 24 h, AR ELISA; for DC50: concentration of compound when AR level = 50% of DMSO control; for remaining activity at up to 5 µM: top concentration 5 μM, read-out: Y (lowest measured AR level normalized to DMSO control, AR degradation efficiency). As for the experimental part: VCAP AR Degradation Assay. Test compounds were pre-dispensed into a Corning CellBind 96-well clear bottom plate (Cat #3300) using an acoustic dispenser to make a 10-point concentration series at 1:3 dilution for each compound. The final top concentration of each compound was 5 μM. DMSO at a final concentration of 0.1% was used as a control. VCaP cells cultured in DMEM with 8% fetal bovine serum (FBS) were seeded at 50K cells per well in a 200 μL volume into the compound plate and incubated at 37° C. in a CO2 incubator for 24 h. The medium was carefully removed from the cells and the plate was placed on ice. One hundred μL of ice-cold 1× cell lysis buffer from Cell Signaling Technologies (Cat #9803) was added to each well of the cells and the plate was incubated at 4° C. on a shaker for 1 h. Fifteen μL of cell lysate was used for AR ELISA detection using a PathScan Total Sandwich AR ELISA kit (Cell Signaling Technology, Cat #12580). AR levels in compound-treated wells were normalized to that of DMSO control and expressed as percent of control (PoC) (y). A Four Parameter Logistic Model (Sigmoidal Dose-Response Model) was used to determine the compound's DC50, and EC50, using the following equation: y=(A+((B−A)/(1+((C/x)^D)))) • A=YMin (lowest AR level normalized to DMSO control in response to compound treatment, as determined by curve fit) • B=YMax (maximum AR level as determined by curve fit) • C=EC50 • D=Hill Slope • x=compound concentration • EC50=the concentration of compound when y=(YMax−YMin)/2 • DC50=the concentration of the compound when y=50% of DMSO control (50% AR degradation) • y=AR protein level normalized to DMSO control
The lowest measured AR level normalized to DMSO control in response to compound treatment, termed Y value, was used to characterize the compound-mediated AR degradation efficiency.
On the technique in general: ELISA stands for enzyme-linked immunosorbent assay.

Where a name gives a salt, the structure may show the parent alone.

Consider `C[C@@H]1C[C@H](OCC[C@H]2CC[C@H](N3C(=S)N(c4ccc(C#N)c(C(F)(F)F)c4)C(=O)C3(C)C)CC2)C[C@H](C)N1CC(=O)Nc1cccc2c(C3CCC(=O)NC3=O)nn(C)c12` (stereo partly drawn) [Cmpd 26, 2-((2R,4r,6S)-4-(2-((trans)-4-(3-(4-Cyano-3-(trifluoromethyl)phenyl)-5,5-dimethyl-4-oxo-2-thioxoimidazolidin-1-yl)cyclohexyl)ethoxy)-2,6-dimethylpiperidin-1-yl)-N-(3-(2,6-dioxopiperidin-3-yl)-1-methyl-1H-indazol-7-yl)acetamide], for which the DC50 lay within 5 to 20 nM and the remaining activity at up to 5 µM was in the range of 0 to 25%.
On the same counts, the results for `C[C@@H]1C[C@H](CCO[C@H]2CC[C@H](N3C(=S)N(c4cnc(C#N)c(C(F)(F)F)c4)C(=O)C3(C)C)CC2)C[C@H](C)N1CC(=O)Nc1cccc2c(C3CCC(=O)NC3=O)nn(C)c12` (stereo partly drawn) [Cmpd 15, 2-((2R,4r,6S)-4-(2-(((trans)-4-(3-(6-Cyano-5-(trifluoromethyl)pyridine-3-yl)-5,5-dimethyl-4-oxo-2-thioxoimidazolidin-1-yl)cyclohexyl)oxy)ethyl)-2,6-dimethylpiperidin-1-yl)-N-(3-(2,6-dioxopiperidin-3-yl)-1-methyl-1H-indazol-7-yl)acetamide] are less than 2 nM and 0 to 25%.
Consider `C[C@@H]1C[C@H](OCCO[C@H]2CC[C@H](N3C(=S)N(c4cnc(C#N)c(C(F)(F)F)c4)C(=O)C3(C)C)CC2)C[C@H](C)N1CC(=O)Nc1cccc2c(C3CCC(=O)NC3=O)nn(C)c12` (stereo partly drawn) [Cmpd 28, 2-((2R,4r,6S)-4-(2-(((trans)-4-(3-(6-Cyano-5-(trifluoromethyl)pyridin-3-yl)-5,5-dimethyl-4-oxo-2-thioxoimidazolidin-1-yl)cyclohexyl)oxy)ethoxy)-2,6-dimethylpiperidin-1-yl)-N-(3-(2,6-dioxopiperidin-3-yl)-1-methyl-1H-indazol-7-yl)acetamide], for which the DC50 was less than 2 nM and the remaining activity at up to 5 µM was in the range of 0 to 25%.
The matching figures for `Cn1nc(C2CCC(=O)NC2=O)c2cccc(NC(=O)CN3CCN(CCO[C@H]4CC[C@H](N5C(=S)N(c6ccc(C#N)c(C(F)(F)F)c6)C(=O)C5(C)C)CC4)C[C@@H]3C(F)(F)F)c21` (stereo partly drawn) [Cmpd 14, 2-((R)-4-(2-((trans-4-(3-(4-Cyano-3-(trifluoromethyl)phenyl)-5,5-dimethyl-4-oxo-2-thioxoimidazolidin-1-yl)cyclohexyl)oxy)ethyl)-2-(trifluoromethyl)piperazin-1-yl)-N-(3-(2,6-dioxopiperidin-3-yl)-1-methyl-1H-indazol-7-yl)acetamide hydrochloride]: less than 2 nM and 0 to 25%.
The matching figures for `C[C@@H]1C[C@H](OCCC[C@H]2CC[C@H](N3C(=S)N(c4cnc(C#N)c(C(F)(F)F)c4)C(=O)C3(C)C)CC2)C[C@H](C)N1CC(=O)Nc1cccc2c(C3CCC(=O)NC3=O)nn(C)c12` (stereo partly drawn) [Cmpd 24, 2-((2R,4r,6S)-4-(3-((trans)-4-(3-(6-Cyano-5-(trifluoromethyl)pyridin-3-yl)-5,5-dimethyl-4-oxo-2-thioxoimidazolidin-1-yl)cyclohexyl)propoxy)-2,6-dimethylpiperidin-1-yl)-N-(3-(2,6-dioxopiperidin-3-yl)-1-methyl-1H-indazol-7-yl)acetamide]: 5 to 20 nM and 0 to 25%.
On the same counts, the results for `Cn1nc(C2CCC(=O)NC2=O)c2cccc(NC(=O)CN3CCN(CCCO[C@H]4CC[C@H](N5C(=S)N(c6cnc(C#N)c(C(F)(F)F)c6)C(=O)C5(C)C)CC4)C[C@@H]3C(F)(F)F)c21` (stereo partly drawn) [Cmpd 20, 2-((R)-4-(3-(((trans)-4-(3-(6-Cyano-5-(trifluoromethyl)pyridin-3-yl)-5,5-dimethyl-4-oxo-2-thioxoimidazolidin-1-yl)cyclohexyl)oxy)propyl)-2-(trifluoromethyl)piperazin-1-yl)-N-(3-(2,6-dioxopiperidin-3-yl)-1-methyl-1H-indazol-7-yl)acetamide] are 2 to 5 nM and 0 to 25%.
In the case of `C[C@@H]1C[C@H](OCCC[C@H]2CC[C@H](N3C(=S)N(c4ccc(C#N)c(C(F)(F)F)c4)C(=O)C3(C)C)CC2)C[C@H](C)N1CC(=O)Nc1cccc2c(C3CCC(=O)NC3=O)nn(C)c12` (stereo partly drawn) [Cmpd 23, 2-((2R,4r,6S)-4-(3-((trans)-4-(3-(4-Cyano-3-(trifluoromethyl)phenyl)-5,5-dimethyl-4-oxo-2-thioxoimidazolidin-1-yl)cyclohexyl)propoxy)-2,6-dimethylpiperidin-1-yl)-N-(3-(2,6-dioxopiperidin-3-yl)-1-methyl-1H-indazol-7-yl)acetamide], the 50% degradation concentration (DC50) is 20 to 100 nM and the remaining activity at up to 5 µM is 0 to 25%.
On the same counts, the results for `C[C@@H]1CN(CCCC[C@H]2CC[C@H](N3C(=S)N(c4ccc(C#N)c(C(F)(F)F)c4)C(=O)C3(C)C)CC2)C[C@H](C)N1CC(=O)Nc1cccc2c(C3CCC(=O)NC3=O)nn(C)c12` (stereo partly drawn) [Cmpd 19, 2-((2S,6R)-4-(4-((trans)-4-(3-(4-Cyano-3-(trifluoromethyl)phenyl)-5,5-dimethyl-4-oxo-2-thioxoimidazolidin-1-yl)cyclohexyl)butyl)-2,6-dimethylpiperazin-1-yl)-N-(3-(2,6-dioxopiperidin-3-yl)-1-methyl-1H-indazol-7-yl)acetamide] are 2 to 5 nM and 0 to 25%.
On the same counts, the results for `C[C@@H]1CN(CCCO[C@H]2CC[C@H](N3C(=S)N(c4ccc(C#N)c(C(F)(F)F)c4)C(=O)C3(C)C)CC2)C[C@H](C)N1CC(=O)Nc1cccc2c(C3CCC(=O)NC3=O)nn(C)c12` (stereo partly drawn) [Cmpd 8, 2-((2R,6S)-4-(3-((trans-4-(3-(4-Cyano-3-(trifluoromethyl)phenyl)-5,5-dimethyl-4-oxo-2-thioxoimidazolidin-1-yl)cyclohexyl)oxy)propyl)-2,6-dimethylpiperazin-1-yl)-N-(3-(2,6-dioxopiperidin-3-yl)-1-methyl-1H-indazol-7-yl)acetamide] are less than 2 nM and 25 to 30%.
The matching figures for `C[C@@H]1C[C@H](CCO[C@H]2CC[C@H](N3C(=S)N(c4ccc(C#N)c(C(F)(F)F)c4)C(=O)C3(C)C)CC2)C[C@H](C)N1CC(=O)Nc1cccc2c(C3CCC(=O)NC3=O)nn(C)c12` (stereo partly drawn) [Cmpd 13, 2-((2R,4r,6S)-4-(2-((trans-4-(3-(4-Cyano-3-(trifluoromethyl)phenyl)-5,5-dimethyl-4-oxo-2-thioxoimidazolidin-1-yl)cyclohexyl)oxy)ethyl)-2,6-dimethylpiperidin-1-yl)-N-(3-(2,6-dioxopiperidin-3-yl)-1-methyl-1H-indazol-7-yl)acetamide hydrochloride]: 2 to 5 nM and 0 to 25%.
`C[C@@H]1CN(CCC[C@H]2CC[C@H](N3C(=S)N(c4cnc(C#N)c(Cl)c4)C(=O)C3(C)C)CC2)C[C@H](C)N1CC(=O)Nc1cccc2c(C3CCC(=O)NC3=O)nn(C)c12` (stereo partly drawn) [Cmpd 10, 2-((2R,6S)-4-(3-(trans-4-(3-(5-Chloro-6-cyanopyridin-3-yl)-5,5-dimethyl-4-oxo-2-thioxoimidazolidin-1-yl)cyclohexyl)propyl)-2,6-dimethylpiperazin-1-yl)-N-(3-(2,6-dioxopiperidin-3-yl)-1-methyl-1H-indazol-7-yl)acetamide]: the DC50 lay in the range of 2 to 5 nM and the remaining activity at up to 5 µM lay within 30 to 50%.

A word on the DC50: it is the concentration giving 50% degradation.
